From patent US10208056B2, “Condensed tricyclic compounds as protein kinase inhibitors” (FUNDACIÓN DEL SECTOR PÚBLICO ESTATAL CENTRO NACIONAL DE …, priority 2015, dated 2019)
Where two headings read alike, the source gives them in different places.

What was measured:
CDK8/Cyclin C = CDK8/Cyclin C (Homo sapiens (Human), UniProt P49336); experiment: CDK8/Cyclin C binding assay (LanthaScreen Eu-Kinase Binding Assay); conditions: binding assay
Experimental: The enzyme has been purchase from Invitrogen (PV4402) as a dimer of full-length His-tagged recombinant human proteins.
Assays were performed in 384-well plates. The final read out was generated using an EnVision plate reader (Perkin-Elmer).

MDA-MB-231 = experiment: In vitro cell proliferation assay (CellTiter-Glo), MDA-MB-231; format: cell-based; conditions: Homo sapiens, MDA-MB-231, growth inhibition, read-out: GI50 MDA-MB-231
Haspin kinase = Haspin kinase (Homo sapiens (Human), UniProt Q8TF76); experiment: Haspin kinase assay (ADP-Glo); format: biochemical; conditions: ATP 150 μM
Sequence of Haspin kinase (Q8TF76 484-798): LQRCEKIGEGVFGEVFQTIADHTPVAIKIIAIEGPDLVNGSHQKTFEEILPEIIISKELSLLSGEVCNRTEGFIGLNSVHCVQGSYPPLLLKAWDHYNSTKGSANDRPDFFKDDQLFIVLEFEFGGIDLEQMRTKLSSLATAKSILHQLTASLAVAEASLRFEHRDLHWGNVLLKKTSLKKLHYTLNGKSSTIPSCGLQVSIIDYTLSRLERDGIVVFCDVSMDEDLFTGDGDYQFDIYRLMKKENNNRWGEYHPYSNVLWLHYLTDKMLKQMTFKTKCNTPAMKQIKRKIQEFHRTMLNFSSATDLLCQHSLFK
Summary of the method: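 Compounds in 1:3 serial dilutions (1% DMSO final) were incubated 60 min at 30 °C with 20 nM recombinant GST-Haspin kinase domain and 150 μM ATP, without substrate, in pH 7.4 HEPES/MgCl2 buffer. ADP formed was read by luciferase luminescence and normalized to uninhibited enzyme to give % inhibition.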

intracellular CDK8 [1] = target: T1, intracellular CDK8 (Homo sapiens (Human), UniProt P49336); experiment: Cellular CDK8 inhibition assay, western blot P-STAT1 (S727) in IFN-γ treated SW620 cells; format: cell-based; conditions: SW620, IFNγ treated, read-out: SW620 P-STAT1(S727) w IFNγ
T1 sequence (P49336 whole entry): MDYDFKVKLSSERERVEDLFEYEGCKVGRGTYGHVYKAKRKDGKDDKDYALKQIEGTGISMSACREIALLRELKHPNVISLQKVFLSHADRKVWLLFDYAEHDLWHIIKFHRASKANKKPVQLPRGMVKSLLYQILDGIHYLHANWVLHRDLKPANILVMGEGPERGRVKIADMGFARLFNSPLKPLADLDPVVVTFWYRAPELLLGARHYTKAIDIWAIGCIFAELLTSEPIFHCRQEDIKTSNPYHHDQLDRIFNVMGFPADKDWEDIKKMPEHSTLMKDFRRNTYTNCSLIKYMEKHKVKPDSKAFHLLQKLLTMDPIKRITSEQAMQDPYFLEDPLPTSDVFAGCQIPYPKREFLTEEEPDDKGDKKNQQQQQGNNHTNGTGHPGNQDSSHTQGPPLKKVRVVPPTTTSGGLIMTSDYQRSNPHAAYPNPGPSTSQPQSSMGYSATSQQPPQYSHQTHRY
T1 sequence (P24863 whole entry partner): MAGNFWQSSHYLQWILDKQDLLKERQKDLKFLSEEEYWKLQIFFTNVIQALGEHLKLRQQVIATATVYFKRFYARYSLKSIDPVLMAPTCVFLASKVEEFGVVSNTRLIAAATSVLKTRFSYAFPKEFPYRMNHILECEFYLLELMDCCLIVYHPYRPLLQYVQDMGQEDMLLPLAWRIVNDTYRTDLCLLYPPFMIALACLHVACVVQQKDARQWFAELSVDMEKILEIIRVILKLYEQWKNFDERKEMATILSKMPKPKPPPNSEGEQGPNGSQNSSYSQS
T1 sequence (Q93074 whole entry partner): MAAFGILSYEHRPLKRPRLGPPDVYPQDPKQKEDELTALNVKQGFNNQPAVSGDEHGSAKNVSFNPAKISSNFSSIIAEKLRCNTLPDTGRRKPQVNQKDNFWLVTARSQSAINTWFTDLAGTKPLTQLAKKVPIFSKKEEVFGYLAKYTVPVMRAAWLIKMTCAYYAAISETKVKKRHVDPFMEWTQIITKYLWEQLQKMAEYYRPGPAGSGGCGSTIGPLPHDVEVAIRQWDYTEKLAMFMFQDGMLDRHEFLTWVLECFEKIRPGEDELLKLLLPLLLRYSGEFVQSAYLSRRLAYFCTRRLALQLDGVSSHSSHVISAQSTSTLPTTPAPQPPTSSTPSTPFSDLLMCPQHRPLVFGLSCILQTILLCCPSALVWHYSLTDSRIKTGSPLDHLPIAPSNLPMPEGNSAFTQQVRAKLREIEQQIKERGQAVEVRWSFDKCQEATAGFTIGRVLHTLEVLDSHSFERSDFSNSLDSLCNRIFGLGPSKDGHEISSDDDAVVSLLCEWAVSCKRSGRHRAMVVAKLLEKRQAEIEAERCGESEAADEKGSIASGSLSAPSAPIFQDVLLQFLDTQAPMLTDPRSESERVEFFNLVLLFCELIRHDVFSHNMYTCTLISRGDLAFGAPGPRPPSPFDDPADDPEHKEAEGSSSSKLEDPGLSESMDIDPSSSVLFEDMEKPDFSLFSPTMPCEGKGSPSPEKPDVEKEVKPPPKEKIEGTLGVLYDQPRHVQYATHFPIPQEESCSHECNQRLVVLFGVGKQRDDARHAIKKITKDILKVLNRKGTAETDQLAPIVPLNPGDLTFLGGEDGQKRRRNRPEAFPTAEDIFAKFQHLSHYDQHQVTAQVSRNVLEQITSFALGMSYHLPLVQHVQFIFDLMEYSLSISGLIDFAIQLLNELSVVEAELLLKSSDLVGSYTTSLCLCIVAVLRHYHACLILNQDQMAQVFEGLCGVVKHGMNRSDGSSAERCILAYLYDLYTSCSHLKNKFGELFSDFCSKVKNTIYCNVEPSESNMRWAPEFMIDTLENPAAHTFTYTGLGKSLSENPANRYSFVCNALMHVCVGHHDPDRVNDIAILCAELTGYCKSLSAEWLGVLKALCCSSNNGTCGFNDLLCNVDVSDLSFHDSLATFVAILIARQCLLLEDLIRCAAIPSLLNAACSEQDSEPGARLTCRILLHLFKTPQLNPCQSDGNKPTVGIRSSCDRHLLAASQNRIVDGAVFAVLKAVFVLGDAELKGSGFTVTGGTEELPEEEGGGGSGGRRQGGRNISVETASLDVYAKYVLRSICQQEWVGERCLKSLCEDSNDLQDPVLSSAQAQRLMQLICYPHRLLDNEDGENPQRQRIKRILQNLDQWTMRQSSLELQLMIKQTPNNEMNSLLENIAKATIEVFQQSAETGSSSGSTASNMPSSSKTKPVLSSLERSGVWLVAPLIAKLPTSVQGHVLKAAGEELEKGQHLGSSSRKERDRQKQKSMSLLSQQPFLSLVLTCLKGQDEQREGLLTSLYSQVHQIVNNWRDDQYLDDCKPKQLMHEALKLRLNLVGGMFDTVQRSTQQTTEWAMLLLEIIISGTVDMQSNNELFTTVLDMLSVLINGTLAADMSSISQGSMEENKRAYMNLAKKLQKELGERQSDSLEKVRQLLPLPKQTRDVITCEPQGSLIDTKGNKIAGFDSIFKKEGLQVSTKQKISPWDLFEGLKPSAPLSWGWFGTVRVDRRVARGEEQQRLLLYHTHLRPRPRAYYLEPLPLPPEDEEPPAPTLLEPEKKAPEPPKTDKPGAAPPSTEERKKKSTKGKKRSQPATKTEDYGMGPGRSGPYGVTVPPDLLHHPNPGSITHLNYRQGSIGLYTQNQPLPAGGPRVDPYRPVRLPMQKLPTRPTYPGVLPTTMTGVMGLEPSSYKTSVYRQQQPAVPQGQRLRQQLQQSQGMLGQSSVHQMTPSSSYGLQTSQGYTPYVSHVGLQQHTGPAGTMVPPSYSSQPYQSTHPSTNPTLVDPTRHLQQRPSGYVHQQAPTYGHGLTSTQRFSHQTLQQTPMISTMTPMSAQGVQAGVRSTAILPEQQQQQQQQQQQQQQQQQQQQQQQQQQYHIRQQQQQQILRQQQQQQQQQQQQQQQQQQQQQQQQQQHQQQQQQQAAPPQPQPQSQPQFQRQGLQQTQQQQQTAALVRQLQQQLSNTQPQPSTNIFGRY

intracellular CDK8 [2] = target: T1, intracellular CDK8; experiment: Endogenous phosphoSTAT1 inhibition in SW620 cells growing in 10% FBS; format: cell-based; conditions: read-out: SW620 P-STAT1(S727)
Summary of the method: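 SW620 cells in 10% FBS treated 8 h with compound, then lysed and phospho-STAT1 measured relative to total STAT1.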

Sequence of CDK8/Cyclin C (P49336 whole entry): as the sequence (P49336 whole entry) above
Sequence of CDK8/Cyclin C (P24863 whole entry partner): as the sequence (P24863 whole entry partner) above

Row | IC50 (CDK8/Cyclin C) [nM] | GI50 (MDA-MB-231; semiquantitative) [nM] | IC50 (Haspin kinase) [nM] | EC50 (intracellular CDK8 [1]; semiquantitative) [nM] | EC50 (intracellular CDK8 [2]; quantitative) [nM] | GI50 (MDA-MB-231; quantitative) [nM] | EC50 (intracellular CDK8 [1]; quantitative) [nM] | EC50 (intracellular CDK8 [2]; semiquantitative) [nM] | Structure (SMILES)
1 | 4.46 | 10000 to 100000 | 406 | < 500 | – | – | – | – | NC(=O)c1cc2c([nH]1)-c1ccncc1O[C@H]2C1CCOCC1 (single isomer, unassigned) [Example 72]
2 | 1.41 | – | 36.8 | – | 1.5 | 3500 | 0.064 | – | CCn1c(C(N)=O)cc2c1-c1ccncc1OC2(C)C [Example 43]
3 | 1.41 | 1000 to 10000 | 22.4 | < 500 | – | – | – | < 500 | CC1(C)Oc2cnccc2-c2c1cc(C(N)=O)n2CCF [Example 52]
4 | 3.23 | 10000 to 100000 | 354 | < 500 | – | – | – | < 500 | CCn1c(C(N)=O)c(-c2ccccc2OC)c2c1-c1ccncc1OC2(C)C [Example 68]
